Reference: US20220389477A1, “METHOD FOR EVALUATING ANTIBIOTIC SUSCEPTIBILITY” (Vrije Universiteit Brussel, priority 2019, published 2022)
Converted amounts (≈) assume the structure as drawn.

What was measured:
Format in all cases: cell-based
[1] = test system: Klebsiella pneumonia culture; experiment: Optical third-derivative MIC method, culture in broth; details: for MIC: Klebsiella pneumoniae
Description: (§1) The method of FIG. 1 starts at a time equal to zero, t0 (1). Preferably, said t0 is the moment a pure bacteria culture is finished being prepared. Alternatively, said t0 is the moment all wells contain both said bacteria culture and said antimicrobial drug. After the starting of the experiment each well is periodically illuminated with a light source and the intensity of the transmitted light is detected with a photodetector (2). Preferably, each well is illuminated and the intensity of the transmitted light is detected every hour (2). More preferably, each well is illuminated and the intensity of the transmitted light is detected every 5 to 15 min. After a predetermined time length, preferably after 4 hours, a first, a second and a third derivative of said measured intensity is calculated (3) in a first and a second time frame for each well. Preferably, said second time frame is the last measured time frame after the test has been running for said predetermined time length, and said first time frame is the time frame preceding the second time frame. More preferably, said first time frame is between two and three hours and said second time frame is between three and four hours. After the calculation of said derivatives, said first derivative in said second time frame of said reference well is compared to a growth speed threshold value (4). Preferably, said growth speed threshold value is 0.166 (4). If said first derivative in said second time frame of said reference well is larger than or equal to said growth speed threshold value said bacteria culture is classified as Type I (4). If said first derivative in said second time frame of said reference well is smaller than said growth speed threshold value said bacteria culture is classified as Type II (4). Subsequently, independent of the classification of the bacteria culture according to the two types, the method comprises the following steps which are performed for each well or for all wells except said reference well. Both said first and said second time frames are evaluated to see if there is an inflection point present in the second derivative in said first and/or said second time frame (5).
(§2) If said first and/or said second time frame comprise said inflection point than said third derivative in said first time frame is compared to said third derivative in said second time frame (6). If said third derivative in said first time frame is larger than said third derivative in said second time frame, then said first time frame and said second time frame are selected as a first and second time frame to be used in a minimal inhibitory concentration determination method (10). If said third derivative in said first time frame is not larger than said third derivative in said second time frame, then said well is illuminated again after a certain time period, preferably an hour, more preferably 5 to 15 min after said predetermined time length said, with a light source and the intensity of the transmitted light is detected with a photodetector forming a new time frame subsequent to said second time frame (7). A third derivative, and possibly also a first and/or a second derivative, is calculated in said new time frame (7). Further, in step (7) a new first time frame is put equal to said second time frame and a new second time frame to equal to said new time frame. Subsequently, said third derivative in said new first time frame is compared to said third derivative in said new second time frame (8). If said derivative in said new first time frame is larger than said third derivative in said new second time frame, then said new first time frame and said new second time frame are selected as a first and second time frame to be used in a minimal inhibitory concentration determination method (10). […]

Acinetobacter Species [2] = experiment: as above; details: AC/2990; for MIC: Acinetobacter
Description: as §1, §2

[3] = test system: Klebsiella pneumonia culture; experiment: E-test; details: Klebsiella pneumoniae
Acinetobacter Species [4] = experiment: Broth microdilution (BMD); details: culture AC/2990
Acinetobacter Species [5] = experiment: E-test; details: culture AC/2990
[6] = test system: Klebsiella pneumonia culture; experiment: Broth microdilution (BMD); details: Klebsiella pneumoniae

C[C@@H](O)[C@H]1C(=O)N2C(C(=O)O)=C(SCCN=CN)C[C@H]12 [imipenem]
MIC ([1]; KP/38.3002, FIG. 5H repetition, Table 10, 3 h-4 h, read-out: MIC (40%) T1): 0.5 µg/mL (≈ 1.67 µM) | MIC ([1]; KP/38.3002, FIG. 5H repetition, Table 10, 3 h-4 h, read-out: MIC (60%) T1): 0.5 µg/mL (≈ 1.67 µM) | MIC ([1]; KP/38.3002, FIG. 5H repetition, Table 10, 3 h-4 h, read-out: MIC (75%) T1): 0.5 µg/mL (≈ 1.67 µM) | MIC ([1]; KP/38.3002, FIG. 5H repetition, Table 10, 4 h-5 h, read-out: MIC (25%) T2): 16 µg/mL (≈ 53.4 µM) | MIC ([1]; KP/38.3002, FIG. 5H repetition, Table 10, 4 h-5 h, read-out: MIC (40%) T2): 16 µg/mL (≈ 53.4 µM) | MIC ([1]; KP/38.3002, FIG. 5H repetition, Table 10, 4 h-5 h, read-out: MIC (60%) T2): 16 µg/mL (≈ 53.4 µM) | MIC ([1]; KP/38.3002, FIG. 5H repetition, Table 10, 4 h-5 h, read-out: MIC (75%) T2): 8 µg/mL (≈ 26.7 µM) | MIC ([1]; KP/38.3002, FIG. 5H repetition, Table 11, 3 h-4 h, read-out: MIC (25%) T1): 16 µg/mL (≈ 53.4 µM) | MIC ([1]; KP/38.3002, FIG. 5H repetition, Table 11, 3 h-4 h, read-out: MIC (40%) T1): 0.25 µg/mL (≈ 0.835 µM) | MIC ([1]; KP/38.3002, FIG. 5H repetition, Table 11, 3 h-4 h, read-out: MIC (60%) T1): 0.25 µg/mL (≈ 0.835 µM) | MIC ([1]; KP/38.3002, FIG. 5H repetition, Table 11, 3 h-4 h, read-out: MIC (75%) T1): 0.25 µg/mL (≈ 0.835 µM) | MIC ([1]; KP/38.3002, FIG. 5H repetition, Table 11, 4 h-5 h, read-out: MIC (25%) T2): 16 µg/mL (≈ 53.4 µM) | MIC ([1]; KP/38.3002, FIG. 5H repetition, Table 11, 4 h-5 h, read-out: MIC (40%) T2): 8 µg/mL (≈ 26.7 µM) | MIC ([1]; KP/38.3002, FIG. 5H repetition, Table 11, 4 h-5 h, read-out: MIC (60%) T2): 8 µg/mL (≈ 26.7 µM) | MIC ([1]; KP/38.3002, FIG. 5H repetition, Table 11, 4 h-5 h, read-out: MIC (75%) T2): 8 µg/mL (≈ 26.7 µM) | MIC ([1]; KP/153.4346, FIG. 5G, overall conclusion, read-out: MIC value determined by the method): > 256 µg/mL | MIC ([1]; MP/072.3489, FIG. 5B, overall conclusion, read-out: MIC value determined by the method): 16 µg/mL (≈ 53.4 µM) | HR? at MIC (25%) ([1]; MP/072.3489, ratio MIC T2/T1): yes (If the ratio of the MIC value in the second time frame over the MIC value in the first time frame is higher than or equal to 8 then the ratio is labelled to be heteroresistant) | HR? at MIC (40%) ([1]; MP/072.3489, ratio MIC T2/T1): yes (If the ratio of the MIC value in the second time frame over the MIC value in the first time frame is higher than or equal to 8 then the ratio is labelled to be heteroresistant) | HR? at MIC (60%) ([1]; MP/072.3489, ratio MIC T2/T1): yes (If the ratio of the MIC value in the second time frame over the MIC value in the first time frame is higher than or equal to 8 then the ratio is labelled to be heteroresistant) | HR? at MIC (75%) ([1]; MP/072.3489, ratio MIC T2/T1): yes (If the ratio of the MIC value in the second time frame over the MIC value in the first time frame is higher than or equal to 8 then the ratio is labelled to be heteroresistant) | HR? at MIC (40%) (Acinetobacter Species [2]; ratio MIC T2/T1): no (If the ratio of the MIC value in the second time frame over the MIC value in the first time frame is lower than or equal to 4 then the ratio is labelled not to be heteroresistant) | HR? at MIC (60%) (Acinetobacter Species [2]; ratio MIC T2/T1): no (If the ratio of the MIC value in the second time frame over the MIC value in the first time frame is lower than or equal to 4 then the ratio is labelled not to be heteroresistant) | HR? at MIC (75%) (Acinetobacter Species [2]; ratio MIC T2/T1): no (If the ratio of the MIC value in the second time frame over the MIC value in the first time frame is lower than or equal to 4 then the ratio is labelled not to be heteroresistant) | HR? at MIC (25%) (Acinetobacter Species [2]; ratio MIC T2/T1, omitted (Type II)): yes (If the ratio of the MIC value in the second time frame over the MIC value in the first time frame is higher than or equal to 8 then the ratio is labelled to be heteroresistant) | MIC (Acinetobacter Species [2]; 2 h-3 h, omitted from determination (Type II), read-out: MIC (25%) T1): 0.25 µg/mL (≈ 0.835 µM) | MIC (Acinetobacter Species [2]; 2 h-3 h, read-out: MIC (40%) T1): 0.25 µg/mL (≈ 0.835 µM) | MIC (Acinetobacter Species [2]; 2 h-3 h, read-out: MIC (60%) T1): < 0.125 µg/mL | MIC (Acinetobacter Species [2]; 2 h-3 h, read-out: MIC (75%) T1): < 0.125 µg/mL | MIC (Acinetobacter Species [2]; 3 h-4 h, omitted from determination (Type II), read-out: MIC (25%) T2): 128 µg/mL (≈ 428 µM) | MIC (Acinetobacter Species [2]; 3 h-4 h, read-out: MIC (40%) T2): 0.25 µg/mL (≈ 0.835 µM) | MIC (Acinetobacter Species [2]; 3 h-4 h, read-out: MIC (60%) T2): < 0.125 µg/mL | MIC (Acinetobacter Species [2]; 3 h-4 h, read-out: MIC (75%) T2): < 0.125 µg/mL | MIC (Acinetobacter Species [2]; FIG. 5A, overall conclusion, read-out: MIC value determined by the method): 0.25 µg/mL (≈ 0.835 µM) | MIC ([3]; culture KP/38.3002): 16 µg/mL (≈ 53.4 µM) | MIC ([3]; culture KP/153.4346): > 32 µg/mL | MIC ([3]; culture MP/072.3489): 16 µg/mL (≈ 53.4 µM) | MIC (Acinetobacter Species [4]): 0.25 µg/mL (≈ 0.835 µM) | MIC (Acinetobacter Species [5]): 0.25 µg/mL (≈ 0.835 µM) | MIC ([6]; culture KP/38.3002): 16 µg/mL (≈ 53.4 µM) | MIC ([6]; culture KP/153.4346): 16 µg/mL (≈ 53.4 µM) | MIC ([6]; culture MP/072.3489): 32 µg/mL (≈ 107 µM)
